Reference: ChEMBL document CHEMBL4840370, “Irilone, a Red Clover Isoflavone, Combined with Progesterone Enhances PR Signaling through the Estrogen and Glucocorticoid Receptors” (J Nat Prod, 2021)
The source made the active and inactive calls. The rule behind the calls is not given here.

Assays:
[1] = system: T47D; experiment: Effect on R5020-induced PR-B phosphorylation at Ser294 residue in human T47D cells at 10 uM incubated for 60 mins by western blot analysis; format: functional, cell-based
[2] = target: T1, Estrogen receptor (Homo sapiens) (UniProt P03372); experiment: Induction of estrogen receptor in human T47D cells assessed as potentiation of progesterone transcriptional activity by measuring increase in HRE-Luc activity at 10 uM measured after 24 hrs in presence of 5 nM progesterone by HRE-dependent dual luciferase reporter gene assay; format: cell-based; conditions: filed as activator
T1 sequence (whole entry): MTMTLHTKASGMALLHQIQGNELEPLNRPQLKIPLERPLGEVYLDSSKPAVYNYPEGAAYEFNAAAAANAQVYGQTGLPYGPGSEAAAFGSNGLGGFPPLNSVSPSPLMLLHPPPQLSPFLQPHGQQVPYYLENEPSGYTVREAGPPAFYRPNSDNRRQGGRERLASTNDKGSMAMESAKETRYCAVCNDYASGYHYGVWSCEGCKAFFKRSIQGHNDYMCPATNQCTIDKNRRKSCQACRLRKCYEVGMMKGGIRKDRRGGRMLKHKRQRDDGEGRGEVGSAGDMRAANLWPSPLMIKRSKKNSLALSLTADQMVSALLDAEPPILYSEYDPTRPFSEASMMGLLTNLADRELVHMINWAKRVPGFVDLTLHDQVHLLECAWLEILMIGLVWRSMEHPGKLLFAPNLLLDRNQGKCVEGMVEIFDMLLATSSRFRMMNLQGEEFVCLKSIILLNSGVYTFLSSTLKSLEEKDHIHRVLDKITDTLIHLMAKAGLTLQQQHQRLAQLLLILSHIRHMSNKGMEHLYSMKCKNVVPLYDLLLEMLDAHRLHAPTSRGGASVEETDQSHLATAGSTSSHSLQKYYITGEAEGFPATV

[3] = target: T2, Glucocorticoid receptor (Homo sapiens) (UniProt P04150); experiment: Induction of glucocorticoid receptor in human Ishikawa PR-B cells assessed as potentiation of progesterone transcriptional activity by measuring increase in HRE-Luc activity at 10 uM measured after 24 hrs in presence of 5 to 100 nM progesterone by HRE-dependent dual luciferase reporter gene assay; format: cell-based; conditions: filed as activator
T2 sequence (whole entry): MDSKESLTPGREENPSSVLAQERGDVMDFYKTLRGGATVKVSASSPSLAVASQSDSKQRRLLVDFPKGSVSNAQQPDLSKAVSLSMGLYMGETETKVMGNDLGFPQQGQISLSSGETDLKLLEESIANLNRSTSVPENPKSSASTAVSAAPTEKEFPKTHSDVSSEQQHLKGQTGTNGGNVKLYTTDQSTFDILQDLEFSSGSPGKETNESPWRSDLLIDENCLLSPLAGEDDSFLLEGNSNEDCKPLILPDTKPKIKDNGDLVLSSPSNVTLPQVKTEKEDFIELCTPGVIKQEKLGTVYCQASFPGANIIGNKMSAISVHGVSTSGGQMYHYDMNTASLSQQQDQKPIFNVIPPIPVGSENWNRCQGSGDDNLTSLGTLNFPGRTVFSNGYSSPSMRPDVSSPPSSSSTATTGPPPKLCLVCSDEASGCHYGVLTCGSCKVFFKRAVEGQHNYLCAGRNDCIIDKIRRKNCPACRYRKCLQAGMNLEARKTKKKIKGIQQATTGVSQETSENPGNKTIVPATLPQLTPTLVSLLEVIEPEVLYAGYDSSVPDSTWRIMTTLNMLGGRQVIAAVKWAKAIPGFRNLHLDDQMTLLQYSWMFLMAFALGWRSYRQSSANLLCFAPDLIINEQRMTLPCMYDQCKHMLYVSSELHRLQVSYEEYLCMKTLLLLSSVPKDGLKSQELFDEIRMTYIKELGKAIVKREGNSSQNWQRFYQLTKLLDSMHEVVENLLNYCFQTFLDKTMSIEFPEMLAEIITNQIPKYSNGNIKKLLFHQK

[4] = target: T1, Estrogen receptor (Homo sapiens); experiment: Induction of estrogen receptor in human T47D cells assessed as increase in HRE-luc activity at 10 uM measured after 24 hrs by HRE-dependent dual luciferase reporter gene assay relative to control; format: cell-based; conditions: filed as activator
[5] = target: T2, Glucocorticoid receptor (Homo sapiens); experiment: Induction of glucocorticoid receptor in human Ishikawa PR-B cells assessed as increase in HRE-luc activity at 10 uM measured after 24 hrs by HRE-dependent dual luciferase reporter gene assay relative to control; format: cell-based; conditions: filed as activator
[6] = target: T1, Estrogen receptor (Homo sapiens); experiment: Induction of estrogen receptor in human T47D cells assessed as increase in PR-A protein expression at 10 uM incubated for 24 hrs in presence of SERM, 4-OH-TAM by western blot analysis; format: cell-based
[7] = target: T1, Estrogen receptor (Homo sapiens); experiment: Induction of estrogen receptor in human T47D cells assessed as increase in PR-B protein expression at 10 uM incubated for 24 hrs in presence of SERM, 4-OH-TAM by western blot analysis; format: cell-based
[8] = system: T47D; experiment: Effect on R5020-induced PR-A phosphorylation at Ser294 residue in human T47D cells at 10 uM incubated for 60 mins by western blot analysis; format: functional, cell-based
[9] = target: T1, Estrogen receptor (Homo sapiens); experiment: Induction of estrogen receptor in human T47D cells assessed as increase in ERE/Luc activity at 10 uM measured after 24 hrs by luciferase reporter gene assay relative to control; format: cell-based; conditions: filed as activator
[10] = system: Ishikawa; experiment: Potentiation of progesterone signalling in human Ishikawa null cells transfected with wild type PR assessed as induction of HRE/uc activity at 10 uM incubated for 24 hrs in presence of progesterone by luciferase reporter gene assay relative to control; format: functional
[11] = system: Ishikawa; experiment: Induction of HRE/Luc activity in human Ishikawa null cells at 10 uM incubated for 24 hrs by luciferase reporter gene assay; format: functional, cell-based
[12] = Induction of epithelial cells proliferation in uterus of ovariectomized CD-1 mouse at 4 mg/kg, ip administered once a day for 7 days and measured on day 7 at 6 hrs post-last dosage by PCNA staining based immunohistochemistry (reference value: 33.3%); format: organism-based; conditions: in vivo, 168 h, time 7 day
[13] = Induction of epithelial cells proliferation in uterus of ovariectomized CD-1 mouse at 4 mg/kg, ip administered once a day for 7 days in presence of progesterone and measured on day 7 at 6 hrs post-last dosage by PCNA staining based immunohistochemistry (reference value: 7%); format: organism-based; conditions: in vivo, 168 h, time 7 day
[14] = system: Mus musculus; experiment: In vivo potentiation of progesterone signalling in ovariectomized CD-1 mouse assessed as increase in FKBP5 expression in reproductive tract at 4 mg/kg, ip administered once a day for 7 days in presence of progesterone and measured on day 7 at 6 hrs post-last dosage by immunohistochemistry; format: functional, organism-based; conditions: time 7.0 day
[15] = Induction of HRE/Luc activity in human Ishikawa PR-B cells transfected with GR siRNA at 10 uM incubated for 24 hrs in presence of progesterone by luciferase reporter gene assay relative to control; format: functional
[16] = target: T2, Glucocorticoid receptor (Homo sapiens); experiment: Induction of glucocorticoid receptor in human Ishikawa PR-B cells transfected with scrambled siRNA assessed as potentiation of progesterone signalling by measuring increase in HRE/Luc activity at 10 uM incubated for 24 hrs in presence of progesterone by luciferase reporter gene assay relative to control; format: cell-based; conditions: filed as activator
[17] = system: Ishikawa; experiment: Induction of HRE/Luc activity in human Ishikawa null cells at 10 uM incubated for 24 hrs in presence of progesterone by luciferase reporter gene assay; format: functional, cell-based
[18] = system: Ishikawa; experiment: Potentiation of progesterone receptor signalling in human Ishikawa null cells transfected with wild type PR assessed as induction of HRE/uc activity at 10 uM incubated for 24 hrs by luciferase reporter gene assay relative to control; format: functional
[19] = system: Ishikawa; experiment: Increase in GR protein expression in human Ishikawa PR-B cells at 10 uM incubated for 24 hrs by western blot analysis; format: functional, cell-based
[20] = system: OVCAR-5; experiment: Increase in GR protein expression in human OVCAR-5 cells at 10 uM incubated for 24 hrs by western blot analysis; format: functional, cell-based
[21] = system: T47D; experiment: Effect on PR-A phosphorylation at Ser294 residue in human T47D cells at 10 uM incubated for 60 mins by western blot analysis; format: functional, cell-based
[22] = system: T47D; experiment: Effect on PR-B phosphorylation at Ser294 residue in human T47D cells at 10 uM incubated for 60 mins by western blot analysis; format: functional, cell-based
[23] = system: Ishikawa; experiment: Effect on PR-B protein expression in human Ishikawa PR-B cells at 10 uM incubated for 24 hrs by western blot analysis; format: functional, cell-based
[24] = system: Ishikawa; experiment: Increase in PR-B protein expression in human Ishikawa PR-B cells at 10 uM incubated for 24 hrs in presence of 100 nM progesterone by western blot analysis; format: functional, cell-based
[25] = system: Ishikawa; experiment: Decrease in PR-B protein expression in human Ishikawa PR-B cells at 10 uM incubated for 24 hrs in presence of 100 nM progesterone by western blot analysis; format: functional, cell-based
[26] = target: T1, Estrogen receptor (Homo sapiens); experiment: Induction of estrogen receptor in human T47D cells assessed as increase in PR-B protein expression at 10 uM incubated for 24 hrs by western blot analysis; format: cell-based; conditions: filed as activator
[27] = target: T1, Estrogen receptor (Homo sapiens); experiment: Induction of estrogen receptor in human T47D cells assessed as increase in PR-B protein expression at 10 uM incubated for 24 hrs in presence of progesterone by western blot analysis; format: cell-based
[28] = target: T1, Estrogen receptor (Homo sapiens); experiment: Induction of estrogen receptor in human T47D cells assessed as increase in PR-B protein expression at 10 uM incubated for 24 hrs in presence of SERM, 4-OH-TAM and progesterone by western blot analysis; format: cell-based
[29] = target: T1, Estrogen receptor (Homo sapiens); experiment: Induction of estrogen receptor in human T47D cells assessed as increase in PR-A protein expression at 10 uM incubated for 24 hrs in presence of SERM, 4-OH-TAM and progesterone by western blot analysis; format: cell-based
[30] = target: T2, Glucocorticoid receptor (Homo sapiens); experiment: Agonist activity at GR in human OVCAR-5 cells assessed as induction of HRE/Luc activity at 1 to 10 uM incubated for 24 hrs by luciferase reporter gene assay; format: cell-based; conditions: dose 1-10 µM
[31] = system: OVCAR-5; experiment: Repression of dexamethasone-induced HRE/Luc activity in human OVCAR-5 cells at 10 uM incubated for 24 hrs by luciferase reporter gene assay; format: functional
[32] = system: OVCAR-5; experiment: Repression of dexamethasone-induced HRE/Luc activity in human OVCAR-5 cells at 1 to 5 uM incubated for 24 hrs by luciferase reporter gene assay; format: functional, cell-based; conditions: dose 1-5 µM
[33] = system: Ishikawa; experiment: Effect on PR-A protein expression in human Ishikawa PR-B cells at 10 uM incubated for 24 hrs by western blot analysis; format: functional, cell-based
[34] = system: Ishikawa; experiment: Increase in PR-A protein expression in human Ishikawa PR-B cells at 10 uM incubated for 24 hrs in presence of 100 nM progesterone by western blot analysis; format: functional, cell-based
[35] = system: Ishikawa; experiment: Decrease in PR-A protein expression in human Ishikawa PR-B cells at 10 uM incubated for 24 hrs in presence of 100 nM progesterone by western blot analysis; format: functional, cell-based
[36] = target: T1, Estrogen receptor (Homo sapiens); experiment: Induction of estrogen receptor in human T47D cells assessed as increase in PR-A protein expression at 10 uM incubated for 24 hrs by western blot analysis; format: cell-based; conditions: filed as activator
[37] = target: T1, Estrogen receptor (Homo sapiens); experiment: Induction of estrogen receptor in human T47D cells assessed as increase in PR-A protein expression at 10 uM incubated for 24 hrs in presence of progesterone by western blot analysis; format: cell-based

Activity [2]: Active
Activity [3]: Active
fold change (FC) [4]: 1.07
fold change (FC) [5]: 1.2
Activity [6]: inactive
Activity [7]: inactive
fold change (FC) [9]: 4
fold change (FC) [16]: 44
Activity [26]: Active
Activity [27]: inactive
Activity [28]: inactive
Activity [29]: inactive
Activity [30]: inactive
Activity [36]: Active
Activity [37]: inactive
SMILES: O=c1c(-c2ccc(O)cc2)coc2cc3c(c(O)c12)OCO3
Activity [1]: inactive
Activity [8]: inactive
fold change (FC) [10]: 38
Activity [11]: inactive
Activity [12]: 18.4%
Activity [13]: 0.93%
Activity [14]: inactive
fold change (FC) [15]: 30
Activity [17]: inactive
fold change (FC) [18]: 5.8
Activity [19]: Active
Activity [20]: inactive
Activity [21]: inactive
Activity [22]: inactive
Activity [23]: inactive
Activity [24]: inactive
inhibition [25]: inactive
inhibition at 10 µM [31]: 22%
inhibition [32]: inactive
Activity [33]: inactive
Activity [34]: inactive
inhibition [35]: inactive
